The numbers were not newly measured in patent publication US20040157848A1, “Methods and compositions for the treatment of herpes virus infections using cyclooxygenase-2 selective inhibitors or cyclooxygenase-2 inhibitors in combination with antiviral agents” (Pharmacia Corporation, priority 2002, published 2004), which cites them from elsewhere.

Data set [1] deals with herpes virus. The following applies: supplementation with exogenous GSH, in vitro.
Data set [2] deals with cytomegalovirus induced reactive oxygen species. Particulars: cytomegalovirus infected human smooth muscle.

Consider `N[C@@H](CCC(=O)N[C@@H](CS)C(=O)NCC(=O)O)C(=O)O` [GSH, glutathione], for which the “inhibition of the replication of herpes virus” value in data set [1] was “over 99%”.

Turning to `CC(=O)Oc1ccccc1C(=O)O` [aspirin], in data set [2], the “cytomegalovirus induced reactive oxygen species” value is listed as “reduces”.
